# Source: US20060251638A1, “Cytoprotection through the use of hif hydroxylase inhibitors” (priority 2003, published 2006)
# What was measured:
# [1] = system: gene encoding adrenomedullin; assay: Adrenomedullin gene expression in Hep3B cells (microarray); assay type: cell-based, human; conditions: 25 μM compound, 6 hrs, average of two determinations
# Protocol: Hep3B cells (ATCC No. HB-8064) were grown in DMEM containing 8% fetal bovine serum. Hep3B cells were seeded into 6-well culture dishes at ˜500,000 cells per well. After 8 hours, the media was changed to DMEM containing 0.5% fetal bovine serum and the cells were incubated for an additional 16 hours. Compound A, compound B, compound C, compound G, or compound H was added to the cells (25 μM final concentration) and the cells were incubated for various times. Control cells were incubated with vehicle (DMSO) with no compound treatment. Harvested cells were assessed for cell viability (GUAVA), or added to RNA extraction buffer (RNeasy, Qiagen) and stored at −20° C. for subsequent RNA purification.
# RNA was precipitated in 0.3 M sodium acetate (pH 5.2), 50 ng/ml glycogen, and 2.5 volumes of ethanol for one hour at −20° C. Samples were centrifuged and pellets were washed with cold 80% ethanol, dried, and resuspend in water. Double stranded cDNA was synthesized using a T7-(dT)24 first strand primer (Affymetrix, Inc., Santa Clara Calif.) and the SUPERSCRIPT CHOICE system (Invitrogen) according to the manufacturer's instructions. The final cDNA was extracted with an equal volume of 25:24:1 phenol:chloroform:isoamyl alcohol using a PHASE LOCK GEL insert (Brinkman, Inc., Westbury N.Y.). The aqueous phase was collected and cDNA was precipitated using 0.5 volumes of 7.5 M ammonium acetate and 2.5 volumes of ethanol. Alternatively, cDNA was purified using the GENECHIP sample cleanup module (Affymetrix) according to the manufacturer's instructions.
# Biotin-labeled cRNA was synthesized from the cDNA in an in vitro […] (IVT) reaction using a BIOARRAY HighYield RNA transcript labeling kit (Enzo Diagnostics, Inc., Farmingdale N.Y.) according to the manufacturer's instructions. Final labeled product was purified and fragmented using the GENECHIP sample cleanup module (Affymetrix) according to the manufacturer's instructions.
# Hybridization cocktail was prepared by bringing 5 μg probe to 100 μl in 1× hybridization buffer (100 mM MES, 1 M [Na^+], 20 mM EDTA, 0.01% Tween 20), 100 μg/ml herring sperm DNA, 500 μg/ml acetylated BSA, 0.03 nM contol oligo B2 (Affymetrix), and 1× GENECHIP eukaryotic hybridization control (Affymetrix). The cocktail was sequentially incubated at 99° C. for 5 minutes and 45° C. for 5 minutes, and then centrifuged for 5 minutes. The […] array (Affymetrix) was brought to room temperature and then prehybridized with 1× hybridization buffer at 45° C. for 10 minutes with rotation. The buffer was then replaced with 80 μl hybridization cocktail and the array was hybridized for 16 hours at 45° C. at 60 rpm with counter balance. Following hybridization, arrays were washed once with 6×SSPE, 0.1% Tween 20, and then washed and stained using R-phycoerythrin-conjugated streptavidin (Molecular Probes, Eugene Oreg.), goat anti-streptavidin antibody (Vector Laboratories, Burlingame Calif.), and a GENECHIP Fluidics Station 400 instrument (Affymetrix) according to the manufacturer's EukGE-WS2v4 protocol (Affymetrix). Arrays were analyzed using a GENEARRAY scanner (Affymetrix) and Microarray Suite software (Affymetrix).
# RNA quality was monitored by capillary electrophoresis (Agilent Bioanalyzer). […] Array performance was analyzed with Affymetrix MicroArray Suite (MAS) software and individual probe sets were assigned “present”, “marginal, and “absent” calls according to software defaults. […]
# [2] = system: gene encoding HSP70-3; assay: HSP70-3 mRNA levels in mouse tissues after oral dosing (microarray); assay type: in vivo
# Protocol: Twelve Swiss Webster male mice (30-32 g) were obtained from Simonsen, Inc (Gilroy, Calif.) and treated by oral gavage two times per day for 2.5 days (5 doses) with a 4 ml/kg volume of either 0.5% carboxymethyl cellulose (CMC; Sigma-Aldrich, St. Louis Mo.) (0 mg/kg/day) or 2.5% compound H (25 mg/ml in 0.5% CMC) (200 mg/kg/day). Four hours after the final dose, the mice were then sacrificed and approximately 150 mg of liver and each kidney were isolated and stored in RNALATER solution (Ambion) at −20° C.
# To determine gene induction patterns over time, twenty four Swiss Webster male mice (30-32 g) were obtained from Simonsen, Inc. and treated by oral gavage with a 4 ml/kg volume of either 0.5% carboxymethyl cellulose (CMC; Sigma-Aldrich, St. Louis Mo.) (0 mg/kg) or […] compound H (25 mg/ml in 0.5% CMC) (100 mg/kg). At 4, 8, 16, 24, 48, or 72 hours after the final dose, animals were anesthetized with isoflurane. The mice were then sacrificed and tissue samples of kidney, liver, brain, lung, and heart were isolated and stored in RNALATER solution (Ambion) at −80° C. RNA isolation and gene expression analysis were performed as described below.
# RNA isolation was carried out using the following protocol. A section of each organ was diced, 875 μl of RLT buffer (RNEASY kit; Qiagen Inc., Valencia Calif.) was added, and the pieces were homogenized for about 20 seconds using a rotor-stator POLYTRON homogenizer (Kinematica, Inc., Cincinnati Ohio). […] The RNA was eluted into […] of water and quantitated with RIBOGREEN reagent (Molecular Probes, Eugene Oreg.). The absorbance at 260 and 280 nm was measured to determine RNA purity and concentration.
# Alternatively, tissue samples were diced and homogenized in TRIZOL reagent (Invitrogen Life Technologies, Carlsbad Calif.) using a rotor-stator POLYTRON homogenizer (Kinematica). […] The absorbance at 260 and 280 nm was measured to determine RNA purity and concentration. […]
# [3] = system: H9c2 rat cardiomyocytes; assay: Intracellular ATP levels in H9c2 cardiomyocytes after oxygen and glucose deprivation (glucose-free DMEM, 2 mM KCN); assay type: cell-based; conditions: H9c2, 20 μM pretreatment 24 hours, glucose-free DMEM and 2 mM KCN for 30 minutes; vehicle control 415
# Protocol: In similar experiments, H9c2 rat cardiomyocytes were pretreated with either vehicle control (0.5% DMSO) or 20 μM of Compound A, Compound B, Compound C, Compound D, Compound E, Compound F, Compound G, or compound H. After 24 hours, cells were washed with serum-free DMEM and subjected to oxygen and glucose deprivation by incubating the cells in glucose-free DMEM and 2 mM KCN for 30 minutes. Intracellular ATP levels were then determined.
# [4] = system: adrenomedullin gene expression; assay: Adrenomedullin gene expression in H9c2 cardiomyocytes with or without KCN challenge; assay type: cell-based, rat; conditions: H9c2, 10 μM compound 24 hours
# Protocol: Adrenomedullin gene expression was also examined in cardiomyocytes treated with compound and subsequently challenged with KCN, an inhibitor of oxidative glucose metabolism. H9c2 rat cardiomyocytes were cultured in 96-well tissue culture plates (approximately 20,000 cells per well) in DMEM containing 10% fetal bovine serum. Media was changed to DMEM containing 0.5% fetal bovine serum, and the cells were treated with 10 μM compound C or compound D for 24 hours. Media was then replaced with glucose-free DMEM (Gibco/Invitrogen Cat. # 11966-025) containing 2 mM KCN (Sigma-Aldrich Cat. No. 207810). Results of adrenomedullin gene expression, presented as fold-increase in gene expression above DMSO control, are shown below in Table 2.
# [5] = system: HO-1 protein; assay: HO-1 protein levels in H9c2 cardiomyocytes by ELISA; assay type: cell-based, rat; conditions: H9c2, 100 μM compound; control 2.86
# Protocol: In another series of experiments, H9c2 rat cardiomyocytes were treated with either vehicle control or with various concentrations (1 μM, 3 μM, 10 μM, 30 μM, and 100 μM) of compound C or compound G. Cell lysates were harvested and HO-1 protein levels determined by ELISA according to the manufacturer's instructions (cat # EKS-810; Stressgen, Victoria, BC, Canada). Data shown below in Table 4 represents values obtain with 100 μM compound.
# [6] = Animal Study III: mice, oral gavage, 100 mg/kg
# [7] = then glucose-free DMEM with 2 mM KCN
Structure (SMILES),"Adrenomedullin gene expression, fold-increase above non-treated control [1] [fold]",ATP (relative light units) [3] [relative light units],further results
"O=C(O)CNC(=O)c1nc(Cl)c2ccccc2c1O [Compound H, [(1-Chloro-4-hydroxy-isoquinoline-3-carbonyl)-amino]-acetic acid]",1.298,947,"HSP70-3 mRNA Levels Liver ([2]; Animal Study I: mice, oral gavage two times per day for 2.5 days, 200 mg/kg/day, four hours after final dose): 2.77; HSP70-3 mRNA Levels Liver [2, 6]: 1.441; HSP70-3 mRNA Levels Lung [2, 6]: 3.0"
"O=C(O)CNC(=O)c1ncc2ccc(Sc3ccccc3)cc2c1O [Compound D, [(4-Hydroxy-6-phenylsulfanyl-isoquinoline-3-carbonyl)-amino]-acetic acid]",,859.5,"Adm gene expression, fold-increase above DMSO control ([4]; no KCN): 2.2 fold; Adm gene expression, fold-increase above DMSO control [4, 7]: 4.2 fold"
"O=C(O)CNC(=O)c1nc(Br)c2cc(Oc3ccccc3)ccc2c1O [Compound F, [(1-Bromo-4-hydroxy-7-phenoxy-isoquinoline-3-carbonyl)-amino]-acetic acid]",,1134,
"O=C(O)CNC(=O)c1nc(Cl)c2cc(Oc3ccccc3)ccc2c1O [Compound E, [(1-Chloro-4-hydroxy-7-phenoxy-isoquinoline-3-carbonyl)-amino]-acetic acid]",,2043,
"O=C(O)CNC(=O)c1ncc2cc(Sc3ccccc3)ccc2c1O [Compound C, [(4-Hydroxy-7-phenylsulfanyl-isoquinoline-3-carbonyl)-amino]-acetic acid]",3.896,3710,"Adm gene expression, fold-increase above DMSO control ([4]; no KCN): 4.8 fold; Adm gene expression, fold-increase above DMSO control [4, 7]: 7.9 fold; HO-1 (ng/mg total cell protein) [5]: 102.68 ng/mg total cell protein"
"O=C(O)c1c[nH]c2c(ccc3cccnc32)c1=O [Compound A, 4-Oxo-1,4-dihydro-[1,10]phenanthroline-3-carboxylic acid]",3.582,968.5,
"COc1ccc(CCN(CCC(=O)NO)S(=O)(=O)c2ccc(NC(=O)N(Cc3ccccc3)Cc3ccccc3)cc2)cc1 [Compound B, 3-{[4-(3,3-Dibenzyl-ureido)-benzenesulfonyl]-[2-(4-methoxy-phenyl)-ethyl]-amino}-N-hydroxy-propionamide]",8.334,683.5,
